The structures appear in SMILES notation. Non-standard residues stand in square brackets, D forms with d. Residues, ends and D or L forms follow the SMILES beside them. *: point of attachment. Arg(Nω,Nω'-propylene) = N[C@@H](CCCNC1=NCCCN1)C(=O)O; dPro(cis-4-NH2) = N[C@H]1CN[C@@H](C(=O)O)C1; Oic = O=C(O)[C@@H]1C[C@@H]2CCCC[C@@H]2N1; 1Nal = N[C@@H](Cc1cccc2ccccc12)C(=O)O; 2Nal = N[C@@H](Cc1ccc2ccccc2c1)C(=O)O; Tiq1c(1S) = O=C(O)[C@H]1NCCc2ccccc21; cisHyp = O=C(O)[C@@H]1C[C@H](O)CN1; hArg = N=C(N)NCCCC[C@H](N)C(=O)O; Tic = O=C(O)[C@@H]1Cc2ccccc2CN1; Agb = N=C(N)NCC[C@H](N)C(=O)O; 2Pyrimidinyl = c1cnc(*)nc1; dPip = O=C(O)[C@H]1CCCCN1; Orn = NCCC[C@H](N)C(=O)O; Bn = c1ccc(C*)cc1

T1 sequence (P25106 whole entry): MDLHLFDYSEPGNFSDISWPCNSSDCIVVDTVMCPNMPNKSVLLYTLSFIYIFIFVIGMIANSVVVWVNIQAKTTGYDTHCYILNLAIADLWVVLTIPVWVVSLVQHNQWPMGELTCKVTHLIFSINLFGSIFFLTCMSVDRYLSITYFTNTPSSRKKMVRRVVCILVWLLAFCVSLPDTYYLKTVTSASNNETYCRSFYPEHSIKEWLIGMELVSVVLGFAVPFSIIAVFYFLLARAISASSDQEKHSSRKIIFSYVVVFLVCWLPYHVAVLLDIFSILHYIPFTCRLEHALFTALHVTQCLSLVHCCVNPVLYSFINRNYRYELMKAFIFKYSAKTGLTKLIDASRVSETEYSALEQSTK

This experiment concerns the target T1, CXCR7 (Homo sapiens, UniProt P25106).
T1 construct: host or cells: CHO (PathHunter CHO-CXCR7 β-arrestin cells)
Put plainly: CXCR7 β-arrestin recruitment assay (PathHunter CHO-CXCR7, DiscoverX), agonistic assay. The class given is cell-based. The note with it: agonistic assay; CHO CXCR7 β-arrestin cells; 90 min at 37° C.; chemiluminescence; read-out: β-Arrestin EC50. The protocol: Lyophilized peptides were weighed on a Microbalance (Mettler MX5) and dissolved in DMSO to a final concentration of 10 mM unless otherwise stated. Stock solutions were kept at +4° C., and protected from light.
2.2 CXCR7 β-Arrestin Recruitment Assay
The PathHunter CHO-CXCR7 (DiscoverX) assay was performed according to the manufacturer's protocol. In brief, CHO CXCR7 β-arrestin cells were seeded at a density of 5000 cells per well in 40 μl of F12 medium in black 96-half volume well culture plates and incubated overnight at 37° C. in a humidified atmosphere with 5% CO2. The next day, serial dilutions of PEM compounds have been prepared in DMSO and subsequently diluted in HBSS buffer containing 0.1% BSA.
For agonistic assay, 10 μl of compound solution or a solution of stromal cell-derived factor-1 (SDF-1) as positive control was added to the cells with a final DMSO concentration of 1% (v/v). The plate was incubated for 90 min at 37° C. in 5% CO2 incubator with gentle shaking (300 rpm) before addition of 40 μl of detection reagent per well. Reaction was developed for 90 min at room temperature in the dark with shaking, and chemiluminescence was measured with a Topcount (Perkin Elmer) luminescence counter.
Background: Activated receptors often draw arrestin, which recruitment assays turn into a signal.
As for `CC[C@H](C)[C@@H]1NC(=O)[C@H]([C@@H](C)O)NC(=O)[C@H]2CCCN2C(=O)[C@H](Cc2c[nH]c3ccccc23)NC(=O)[C@H](CCCNc2ncccn2)NC(=O)[C@@H](CCCNC(=N)N)NC1=O` [Ex. 68, cyclo(-Ile-^DArg-Orn(Ar2)-Trp-^DPro-Thr-)] (cyclo(I[dR][Orn](2Pyrimidinyl)W[dP]T)), the EC50 was determined as 453 ± 186 nM. To `CC[C@H](C)[C@@H]1NC(=O)[C@H]([C@@H](C)O)NC(=O)[C@H]2CCCN2C(=O)[C@H](Cc2c[nH]c3ccccc23)NC(=O)[C@H](CCCNC2=NCCCN2)NC(=O)[C@@H](CCCNC(=N)N)NC1=O` [Ex. 71, cyclo(-Ile-^DArg-Orn(A56)-Trp-^DPro-Thr-)] (cyclo(I[dR][Arg(Nω,Nω'-propylene)]W[dP]T)) belongs 3.2 ± 2.7 nM; to `CC[C@H](C)[C@@H]1NC(=O)[C@H]([C@@H](C)O)NC(=O)[C@H]2CCCN2C(=O)[C@H](Cc2ccc3ccccc3c2)NC(=O)[C@H](CCCNC(=N)N)NC(=O)[C@@H](CCCNC(=N)N)NC1=O` [compound 15, cyclo(-Ile-^DArg-Arg-2Nal-^DPro-Thr-)] (cyclo([2Nal][dP]TI[dR]R)), 0.4 ± 0.1 nM. To `CC[C@H](C)[C@@H]1NC(=O)[C@H]([C@@H](C)O)NC(=O)[C@H]2CCCCN2C(=O)[C@H](Cc2c[nH]c3ccccc23)NC(=O)[C@H](CCCNC(=N)N)NC(=O)[C@@H](CCCNC(=N)N)NC1=O` [compound 14, cyclo(-Ile-^DArg-Arg-Trp-^DPip-Thr-)] (cyclo(I[dR]RW[dPip]T)) belongs 0.1 nM. Regarding `N=C(N)NCCCC[C@@H]1NC(=O)[C@H](Cc2c[nH]c3ccccc23)NC(=O)[C@@H](Cc2ccccc2)NC(=O)[C@H](CCCNC(=N)N)NC(=O)[C@@H]2Cc3ccccc3CN2C(=O)[C@H]2C[C@@H](N)CN2C1=O` [compound 39, cyclo(-Arg-^DPhe-Trp-hArg-^DPro((4R)N H2)-Tic-)] (cyclo(R[dF]W[hArg][dPro(cis-4-NH2)][Tic])), the EC50 turned out to be 352 ± 79.3 nM. On to `N=C(N)NCCC[C@@H]1NC(=O)[C@H](Cc2c[nH]c3ccccc23)NC(=O)[C@@H](Cc2ccccc2)NC(=O)[C@H](Cc2c[nH]c3ccccc23)NC(=O)[C@@H]2C[C@H](OCc3ccccc3)CN2C(=O)[C@H]2C[C@@H](N)CN2C1=O` [compound 50, cyclo(-Trp-^DPhe-Trp-Arg-^DPro((4R)NH2)-(4S)-Hyp(Bn)-)] (cyclo(R[dPro(cis-4-NH2)][cisHyp](Bn)W[dF]W)), for which the EC50 amounted to 6.6 ± 1.6 nM. To `N=C(N)NCCCC[C@@H]1NC(=O)[C@@H]2Cc3ccccc3CN2C(=O)[C@H]2C[C@@H](N)CN2C(=O)[C@H](CCCNC(=N)N)NC(=O)[C@H](Cc2c[nH]c3ccccc23)NC(=O)[C@@H](Cc2ccccc2)NC1=O` [compound 35, cyclo(-hArg-^DPhe-Trp-Arg-^DPro((4R)NH2)-Tic-)] (cyclo(R[dPro(cis-4-NH2)][Tic][hArg][dF]W)) belongs 12.2 ± 5.4 nM; to `CC[C@H](C)[C@@H]1NC(=O)[C@H]([C@@H](C)O)NC(=O)[C@H]2CCCN2C(=O)[C@H](Cc2c[nH]c3ccccc23)NC(=O)[C@H](CCCNC(=N)N)NC(=O)[C@@H](Cc2c[nH]cn2)NC1=O` [compound 12, cyclo(-Ile-^DHis-Arg-Trp-^DPro-Thr-)] (cyclo(I[dH]RW[dP]T)), 546 ± 241 nM. For `CC[C@H](C)[C@@H]1NC(=O)[C@H]([C@@H](C)O)NC(=O)[C@H]2CCCN2C(=O)[C@H](Cc2c[nH]c3ccccc23)NC(=O)[C@H](CCCCNC(=N)N)NC(=O)[C@@H](CCCNC(=N)N)NC1=O` [compound 66, cyclo(-Ile-^DArg-hArg-Trp-^DPro-Thr-)] (cyclo(I[dR][hArg]W[dP]T)), the 50% effective concentration (EC50) stood at 11 ± 4.5 nM. As to `CC(C)C[C@@H]1NC(=O)[C@H]([C@@H](C)O)NC(=O)[C@H]2CCCN2C(=O)[C@H](Cc2c[nH]c3ccccc23)NC(=O)[C@H](CCCNC(=N)N)NC(=O)[C@@H](CCCNC(=N)N)NC1=O` [compound 60, cyclo(-Leu-^DArg-Arg-Trp-^DPro-Thr-)] (cyclo(L[dR]RW[dP]T)), the EC50 was found to be 5.3 ± 3.6 nM. To `NCCCC[C@@H]1NC(=O)[C@H](Cc2c[nH]c3ccccc23)NC(=O)[C@@H](Cc2ccccc2)NC(=O)[C@H](Cc2c[nH]c3ccccc23)NC(=O)[C@@H]2Cc3ccccc3CN2C(=O)[C@H]2C[C@@H](N)CN2C1=O` [compound 31, cyclo(-Trp-^DPhe-Trp-Lys-^DPro((4R)NH2)-Tic-)] (cyclo(K[dPro(cis-4-NH2)][Tic]W[dF]W)) belongs 138 ± 115 nM.

As to `CC[C@H](C)[C@@H]1NC(=O)[C@H]([C@@H](C)O)NC(=O)[C@H]2CCCN2C(=O)[C@H](Cc2c[nH]c3ccccc23)NC(=O)[C@H](CCCN)NC(=O)[C@@H](CCCNC(=N)N)NC1=O` [compound 65, cyclo(-Ile-^DArg-Orn-Trp-^DPro-Thr-)] (cyclo(I[dR][Orn]W[dP]T)), the concentration for a half-maximal effect (EC50) was determined as 816 ± 58.8 nM.

On to `CC[C@H](C)[C@@H]1NC(=O)[C@H]([C@@H](C)O)NC(=O)[C@H]2CCCN2C(=O)[C@H](Cc2cccc3ccccc23)NC(=O)[C@H](CCCNC(=N)N)NC(=O)[C@@H](CCCNC(=N)N)NC1=O` [compound 16, cyclo(-Ile-^DArg-Arg-1Nal-^DPro-Thr-)] (cyclo([1Nal][dP]TI[dR]R)), for which the EC50 turned out to be 17.9 ± 2.6 nM. In the case of `CC[C@H](C)[C@@H]1NC(=O)[C@H]([C@@H](C)O)NC(=O)[C@H]2CCCN2C(=O)[C@H](Cc2c[nH]c3ccccc23)NC(=O)[C@H](CCNC(=N)N)NC(=O)[C@@H](CCCNC(=N)N)NC1=O` [Ex. 24, cyclo(-Ile-^DArg-Agb-Trp-^DPro-Thr-)] (cyclo([Agb]W[dP]TI[dR])), the EC50 is 22.3 ± 29.3 nM. Take `N=C(N)NCCC[C@@H]1NC(=O)[C@H](Cc2c[nH]c3ccccc23)NC(=O)[C@@H](Cc2ccccc2)NC(=O)[C@H](Cc2c[nH]c3ccccc23)NC(=O)[C@@H]2C[C@@H]3CCCC[C@@H]3N2C(=O)[C@H]2C[C@@H](N)CN2C1=O` [Ex. 41, cyclo(-Trp-^DPhe-Trp-Arg-^DPro((4R)NH2)-Oic-)] (cyclo([Oic]W[dF]WR[dPro(cis-4-NH2)])): the EC50 came out at 20.9 ± 33.7 nM. Take `N[C@@H]1C[C@@H]2C(=O)N3CCc4ccccc4[C@H]3C(=O)N[C@@H](Cc3c[nH]c4ccccc34)C(=O)N[C@H](Cc3ccccc3)C(=O)N[C@@H](Cc3c[nH]c4ccccc34)C(=O)N[C@@H](CCCNC3=NCCCN3)C(=O)N2C1` [compound 79, cyclo(-Trp-^DPhe-Trp-Orn(A56)-^DPro((4R)NH2)-Tiq-)] (cyclo(W[dF]W[Arg(Nω,Nω'-propylene)][dPro(cis-4-NH2)][Tiq1c(1S)])): the half-maximal effective concentration (EC50) worked out at 46.9 ± 12.5 nM. Take `N=C(N)NCCC[C@@H]1NC(=O)[C@@H]2C[C@@H]3CCCC[C@@H]3N2C(=O)[C@H]2C[C@@H](N)CN2C(=O)[C@H](CCCNC(=N)N)NC(=O)[C@H](Cc2c[nH]c3ccccc23)NC(=O)[C@@H](Cc2ccccc2)NC1=O` [compound 42, cyclo(-Arg-^DPhe-Trp-Arg-^DPro((4R)NH2)-Oic-)] (cyclo([Oic]R[dF]WR[dPro(cis-4-NH2)])): the EC50 came out at 20.5 ± 10.9 nM. Under `N[C@@H]1C[C@@H]2C(=O)N3Cc4ccccc4C[C@H]3C(=O)N[C@@H](Cc3c[nH]c4ccccc34)C(=O)N[C@H](Cc3ccccc3)C(=O)N[C@@H](Cc3c[nH]c4ccccc34)C(=O)N[C@@H](CCCNC3=NCCCN3)C(=O)N2C1` [compound 80, cyclo(-Trp-^DPhe-Trp-Orn(A56)-^DPro((4R)NH2)-Tic-)] (cyclo([Tic]W[dF]W[Arg(Nω,Nω'-propylene)][dPro(cis-4-NH2)])) stands 33.4 ± 0.8 nM.

For orientation: EC50 means the midpoint of the concentration-response curve.

Values taken from patent publication US9637520B2, “Template-fixed peptidomimetics with CXCR7 modulating activity” (POLYPHOR AG, priority 2010, dated 2017).
